Experimental data reported in ChEMBL document CHEMBL6103613 (J Med Chem, 2025).
≈ marks a conversion by molar mass, not a printed value. Calls of active or inactive are those of the source. No cut-off for these calls is given here. Positions of bridges follow the written chain, without caps; N, C: chain ends. Non-standard residues stand in square brackets, D forms with d. Residues, ends and D or L forms follow the SMILES beside them. *: point of attachment. X1 = CC[C@H](C)CCCCC(=O)*; dDab = NCC[C@@H](N)C(=O)O; Dab = NCC[C@H](N)C(=O)O

Experiments:
[1] = Therapeutic index, ratio of HC5 for hemolytic activity in mouse Red blood cell to MIC for antimicrobial activity against Staphylococcus aureus ATCC 25923 assessed as inhibition of visible bacterial growth; type: toxicity, cell-based, RBC; details: red blood cells, read-out: TI
[2] = system: Candida albicans; experiment: Antifungal activity against Candida albicans assessed as reduction in fungal growth incubated for 18 hrs by CLSI based analysis; type: functional
[3] = Hemolytic activity against mouse Red blood cell incubated for 1 hr; type: toxicity, cell-based; details: erythrocyte
[4] = system: Enterococcus faecium; experiment: Antimicrobial activity against vancomycin-resistant Enterococcus faecium assessed as inhibition of visible bacterial growth incubated for 18 hrs by CLSI based analysis; type: functional
[5] = system: Staphylococcus aureus; experiment: Antimicrobial activity against methicillin-resistant Staphylococcus aureus clinical isolate 3 assessed as inhibition of visible bacterial growth incubated for 18 hrs by CLSI based analysis; type: functional
[6] = system: Escherichia coli; experiment: Antimicrobial activity against Escherichia coli assessed as inhibition of visible bacterial growth incubated for 18 hrs by CLSI based analysis; type: functional
[7] = system: Staphylococcus aureus; experiment: Antimicrobial activity against methicillin-resistant Staphylococcus aureus ATCC 43300 assessed as inhibition of visible bacterial growth incubated for 18 hrs by CLSI based analysis; type: functional
[8] = system: Enterococcus faecalis; experiment: Antimicrobial activity against Enterococcus faecalis ATCC 19433 assessed as inhibition of visible bacterial growth incubated for 18 hrs by CLSI based analysis; type: functional
[9] = system: Staphylococcus aureus; experiment: Antimicrobial activity against methicillin-resistant Staphylococcus aureus clinical isolate 4 assessed as inhibition of visible bacterial growth incubated for 18 hrs by CLSI based analysis; type: functional
[10] = system: Staphylococcus aureus; experiment: Antimicrobial activity against Staphylococcus aureus ATCC 25923 assessed as inhibition of visible bacterial growth incubated for 18 hrs by CLSI based analysis; type: functional
[11] = system: Staphylococcus aureus; experiment: Antimicrobial activity against Staphylococcus aureus assessed as inhibition of visible bacterial growth incubated for 18 hrs by CLSI based analysis; type: functional
[12] = system: Staphylococcus epidermidis; experiment: Antimicrobial activity against Staphylococcus epidermidis ATCC 12228 assessed as inhibition of visible bacterial growth incubated for 18 hrs by CLSI based analysis; type: functional
[13] = system: Staphylococcus aureus; experiment: Antimicrobial activity against methicillin-resistant Staphylococcus aureus clinical isolate 2 assessed as inhibition of visible bacterial growth incubated for 18 hrs by CLSI based analysis; type: functional
[14] = system: Bacillus subtilis; experiment: Antimicrobial activity against Bacillus subtilis ATCC 23875 assessed as inhibition of visible bacterial growth incubated for 18 hrs by CLSI based analysis; type: functional
[15] = system: Enterococcus gallinarum; experiment: Antimicrobial activity against Enterococcus gallinarum ATCC 49573 assessed as inhibition of visible bacterial growth incubated for 18 hrs by CLSI based analysis; type: functional
[16] = system: Staphylococcus aureus; experiment: Antibacterial activity against methicillin-resistant Staphylococcus aureus infected in kunming mouse pneumonia model assessed as decrease in IL-10 expression in lung at 5 mg/kg, ip measured upto 8 days; type: functional, organism-based; details: time <= 8.0 day
[17] = system: Staphylococcus aureus; experiment: Antibacterial activity against methicillin-resistant Staphylococcus aureus infected in kunming mouse pneumonia model assessed as decrease in IL-6 expression in lung at 5 mg/kg, ip measured upto 8 days; type: functional, organism-based; details: time <= 8.0 day
[18] = system: Staphylococcus aureus; experiment: Antimicrobial activity against Staphylococcus aureus assessed as reduction in bacterial growth at 2 times MIC incubated for 24 hrs by time-killing assay; type: functional, organism-based
[19] = system: Staphylococcus aureus; experiment: Antibacterial activity against methicillin-resistant Staphylococcus aureus infected in kunming mouse pneumonia model assessed as decrease in TNF-alpha expression in lung at 5 mg/kg, ip measured upto 8 days; type: functional, organism-based; details: time <= 8.0 day
[20] = system: Cell membrane; experiment: Disruption of cell membrane integrity in Staphylococcus aureus at 4 times of MIC incubated for 30 mins by Propidium iodide staining based analysis; type: subcellular
[21] = system: Cell membrane; experiment: Disruption of cell membrane integrity in Staphylococcus aureus at 4 times of MIC incubated for 1 mins by Propidium iodide staining based analysis; type: subcellular
[22] = Hemolytic activity against mouse Red blood cells at 100 microg/ml incubated for 1 hr relative to control; type: toxicity, cell-based, Erythrocyte; details: at 100 µg/mL, read-out: Activity

SMILES	selectivity ratio [1]	MIC [2] [µg/mL]	HC5 [3] [µg/mL]	MIC [4] [µg/mL]	MIC [5] [µg/mL]	MIC [6] [µg/mL]	MIC [7] [µg/mL]	MIC [8] [µg/mL]	MIC [9] [µg/mL]	MIC [10] [µg/mL]	MIC [11] [µg/mL]	MIC [12] [µg/mL]	MIC [13] [µg/mL]	MIC [14] [µg/mL]	MIC [15] [µg/mL]	further results
CC(C)C[C@H]1NC(=O)[C@H](Cc2c(C(c3ccccc3)c3ccccc3)[nH]c3ccccc23)NC(=O)[C@@H](C(C)C)NC(=O)[C@@H]2CSC(N2)[C@H](C(C)C)NC(=O)[C@@H](CCCCN)NC(=O)[C@H](C(C)C)NC1=O	3.48	3.13 (≈ 3.2 µM)	43.53	25 (≈ 25.6 µM)	12.5 (≈ 12.8 µM)	3.13 (≈ 3.2 µM)	12.5 (≈ 12.8 µM)	25 (≈ 25.6 µM)	12.5 (≈ 12.8 µM)	12.5 (≈ 12.8 µM)	3.13 (≈ 3.2 µM)	12.5 (≈ 12.8 µM)	12.5 (≈ 12.8 µM)	6.25 (≈ 6.39 µM)	25 (≈ 25.6 µM)	–
CC(C)C[C@H]1NC(=O)[C@H](Cc2c(C(c3ccccc3)(c3ccccc3)c3ccccc3)[nH]c3ccccc23)NC(=O)[C@@H](C(C)C)NC(=O)[C@@H]2CSC(N2)[C@H](C(C)C)NC(=O)[C@@H](C(C)C)NC(=O)[C@H](CCCCN)NC1=O	11	3.13 (≈ 2.97 µM)	68.73	12.5 (≈ 11.9 µM)	6.25 (≈ 5.93 µM)	3.13 (≈ 2.97 µM)	6.25 (≈ 5.93 µM)	12.5 (≈ 11.9 µM)	6.25 (≈ 5.93 µM)	6.25 (≈ 5.93 µM)	3.13 (≈ 2.97 µM)	6.25 (≈ 5.93 µM)	6.25 (≈ 5.93 µM)	6.25 (≈ 5.93 µM)	12.5 (≈ 11.9 µM)	–
CN[C@H](CC(C)C)C(=O)N[C@H]1C(=O)N[C@@H](CC(N)=O)C(=O)N[C@H]2C(=O)N[C@H]3C(=O)N[C@H](C(=O)N[C@H](C(=O)O)c4cc(O)cc(O)c4-c4cc3ccc4O)[C@H](O)c3ccc(c(Cl)c3)Oc3cc2cc(c3O[C@@H]2O[C@H](CO)[C@@H](O)[C@H](O)[C@H]2O[C@H]2C[C@](C)(N)[C@H](O)[C@H](C)O2)Oc2ccc(cc2Cl)[C@H]1O [VANCOMYCIN]	–	–	–	25 (≈ 17.3 µM)	0.78 (≈ 0.538 µM)	–	0.78 (≈ 0.538 µM)	0.39 (≈ 0.269 µM)	1.56 (≈ 1.08 µM)	0.78 (≈ 0.538 µM)	–	0.39 (≈ 0.269 µM)	3.13 (≈ 2.16 µM)	0.39 (≈ 0.269 µM)	3.13 (≈ 2.16 µM)	Activity [16]: Active; Activity [17]: Active; Activity [18]: inactive; Activity [19]: Active
CC(C)C[C@H]1NC(=O)[C@H](Cc2c(C(c3ccccc3)(c3ccccc3)c3ccccc3)[nH]c3ccccc23)NC(=O)[C@@H](C(C)C)NC(=O)[C@@H]2CSC(N2)[C@H](C(C)C)NC(=O)[C@@H](C(C)C)NC(=O)[C@H](C(C)C)NC1=O	–	–	–	> 50	> 50	–	> 50	> 50	> 50	> 50	–	> 50	> 50	> 50	> 50	–
CC(C)CCCCC(=O)N[C@@H](CCN)C(=O)N[C@H](C(=O)N[C@@H](CCN)C(=O)N[C@H]1CCNC(=O)[C@H]([C@@H](C)O)NC(=O)[C@H](CCN)NC(=O)[C@H](CCN)NC(=O)[C@H](CC(C)C)NC(=O)[C@@H](Cc2ccccc2)NC(=O)[C@@H](CCN)NC1=O)[C@@H](C)O.CC[C@H](C)CCCCC(=O)N[C@@H](CCN)C(=O)N[C@H](C(=O)N[C@@H](CCN)C(=O)N[C@H]1CCNC(=O)[C@H]([C@@H](C)O)NC(=O)[C@H](CCN)NC(=O)[C@H](CCN)NC(=O)[C@H](CC(C)C)NC(=O)[C@@H](Cc2ccccc2)NC(=O)[C@@H](CCN)NC1=O)[C@@H](C)O (X1-[Dab]T[Dab][Dab][dDab][dF]L[Dab][Dab]T; lactam 4-C)	–	–	–	–	–	–	–	–	–	–	–	–	–	–	–	Activity [20]: 38%; Activity [21]: 5.54%
C#CC[C@H]1NC(=O)[C@@H]2CSC(N2)[C@H](C(C)C)NC(=O)[C@@H](C(C)C)NC(=O)[C@H](C(C)C)NC(=O)[C@@H](CCCCN)NC(=O)[C@H](Cc2c(C(c3ccccc3)(c3ccccc3)c3ccccc3)[nH]c3ccccc23)NC1=O	–	3.13 (≈ 3.02 µM)	–	25 (≈ 24.1 µM)	12.5 (≈ 12.1 µM)	3.13 (≈ 3.02 µM)	6.25 (≈ 6.03 µM)	25 (≈ 24.1 µM)	6.25 (≈ 6.03 µM)	6.25 (≈ 6.03 µM)	3.13 (≈ 3.02 µM)	6.25 (≈ 6.03 µM)	6.25 (≈ 6.03 µM)	6.25 (≈ 6.03 µM)	12.5 (≈ 12.1 µM)	–
CC(C)C[C@H]1NC(=O)[C@H](Cc2c[nH]c3ccccc23)NC(=O)[C@@H](C(C)C)NC(=O)[C@@H]2CSC(N2)[C@H](C(C)C)NC(=O)[C@@H](CCCCN)NC(=O)[C@H](C(C)C)NC1=O	–	–	–	> 50	> 50	–	> 50	> 50	> 50	> 50	–	> 50	> 50	> 50	> 50	–
CC(C)C[C@H]1NC(=O)[C@H](Cc2c(C(c3ccccc3)c3ccccc3)[nH]c3ccccc23)NC(=O)[C@@H](CCCCN)NC(=O)[C@@H]2CSC(N2)[C@H](C(C)C)NC(=O)[C@@H](C(C)C)NC(=O)[C@H](C(C)C)NC1=O	> 4	3.13 (≈ 3.2 µM)	> 100	50 (≈ 51.1 µM)	25 (≈ 25.6 µM)	3.13 (≈ 3.2 µM)	25 (≈ 25.6 µM)	25 (≈ 25.6 µM)	25 (≈ 25.6 µM)	25 (≈ 25.6 µM)	3.13 (≈ 3.2 µM)	25 (≈ 25.6 µM)	25 (≈ 25.6 µM)	25 (≈ 25.6 µM)	50 (≈ 51.1 µM)	–
CC(C)C[C@H]1NC(=O)[C@H](Cc2c(C(c3ccccc3)c3ccccc3)[nH]c3ccccc23)NC(=O)[C@@H](C(C)C)NC(=O)[C@@H]2CSC(N2)[C@H](C(C)C)NC(=O)[C@@H](C(C)C)NC(=O)[C@H](CCCCN)NC1=O	2.59	3.13 (≈ 3.2 µM)	64.74	50 (≈ 51.1 µM)	25 (≈ 25.6 µM)	3.13 (≈ 3.2 µM)	25 (≈ 25.6 µM)	50 (≈ 51.1 µM)	12.5 (≈ 12.8 µM)	25 (≈ 25.6 µM)	3.13 (≈ 3.2 µM)	25 (≈ 25.6 µM)	25 (≈ 25.6 µM)	12.5 (≈ 12.8 µM)	50 (≈ 51.1 µM)	–
CC(C)C[C@H]1NC(=O)[C@H](Cc2c(C(c3ccccc3)(c3ccccc3)c3ccccc3)[nH]c3ccccc23)NC(=O)[C@@H](C(C)C)NC(=O)[C@@H]2CSC(N2)[C@H](C(C)C)NC(=O)[C@@H](CCCCN)NC(=O)[C@H](C(C)C)NC1=O	14.1	3.13 (≈ 2.97 µM)	44.04	12.5 (≈ 11.9 µM)	6.25 (≈ 5.93 µM)	3.13 (≈ 2.97 µM)	3.13 (≈ 2.97 µM)	12.5 (≈ 11.9 µM)	6.25 (≈ 5.93 µM)	3.13 (≈ 2.97 µM)	3.13 (≈ 2.97 µM)	6.25 (≈ 5.93 µM)	3.13 (≈ 2.97 µM)	6.25 (≈ 5.93 µM)	6.25 (≈ 5.93 µM)	hemolysis at 1 h, 100 microg/ml [22]: 23%
CC(C)C[C@H]1NC(=O)[C@H](Cc2c(C(c3ccccc3)c3ccccc3)[nH]c3ccccc23)NC(=O)[C@@H](C(C)C)NC(=O)[C@@H]2CSC(N2)[C@H](C(C)C)NC(=O)[C@@H](C(C)C)NC(=O)[C@H](C(C)C)NC1=O	–	–	–	> 50	> 50	–	> 50	> 50	> 50	> 50	–	> 50	> 50	> 50	> 50	–
CC(C)[C@@H]1NC(=O)[C@@H](C(C)C)NC(=O)[C@H](C(C)C)NC(=O)[C@@H](CCCCN)NC(=O)[C@H](Cc2c(C(c3ccccc3)c3ccccc3)[nH]c3ccccc23)NC(=O)[C@@H](C(C)C)NC(=O)[C@@H]2CSC1N2	5.93	3.13 (≈ 3.25 µM)	74.17	50 (≈ 51.9 µM)	12.5 (≈ 13 µM)	3.13 (≈ 3.25 µM)	12.5 (≈ 13 µM)	50 (≈ 51.9 µM)	12.5 (≈ 13 µM)	12.5 (≈ 13 µM)	3.13 (≈ 3.25 µM)	6.25 (≈ 6.48 µM)	12.5 (≈ 13 µM)	6.25 (≈ 6.48 µM)	25 (≈ 25.9 µM)	–
CC(C)C[C@H]1NC(=O)[C@H](Cc2c(C(c3ccccc3)(c3ccccc3)c3ccccc3)[nH]c3ccccc23)NC(=O)[C@@H](CCCCN)NC(=O)[C@@H]2CSC(N2)[C@H](C(C)C)NC(=O)[C@@H](C(C)C)NC(=O)[C@H](C(C)C)NC1=O	7.44	3.13 (≈ 2.97 µM)	46.47	25 (≈ 23.7 µM)	25 (≈ 23.7 µM)	3.13 (≈ 2.97 µM)	12.5 (≈ 11.9 µM)	12.5 (≈ 11.9 µM)	12.5 (≈ 11.9 µM)	6.25 (≈ 5.93 µM)	3.13 (≈ 2.97 µM)	12.5 (≈ 11.9 µM)	12.5 (≈ 11.9 µM)	6.25 (≈ 5.93 µM)	12.5 (≈ 11.9 µM)	–
